Earlier results, collected in paper PMC7395068, “The evolution of strategies to minimise the risk of human drug-induced liver injury (DILI) in drug discovery and development” (Archives of Toxicology, 2020).
Where a name gives a salt, the structure may show the parent alone. Read-outs that look alike come from different tables or passages of the source.

Tests used:
[1] = cited from earlier work
[2] = cited from earlier work; remark: listed apart in the source
human hepatocytes = conditions: cited from earlier work
[3] = assignment in Xu 2008, ref Xu 2008
[4] = human hepatocyte imaging, ref Xu 2008

Row | SMILES | Structural based (HCI), In vitro Assay (human hepatocytes; [4]) | In vivo DILI ([2]; ref Xu 2008) | Structural based (HCI) (human hepatocytes; In vitro Assay, ref Xu 2008) | other results
1 | N[C@@H]1C[C@H]1c1ccccc1 (racemic) [tranylcypromine] | -VE | – | – | DILI +VE (5-8), DILI -VE (-4) ([1]; binary in vivo DILI call given beside the severity category, ref Chen 2016): +VE; DILI severity category ([1]; human DILI concern category (LTKB DILIrank), ref Chen 2016): vLess-DILI-Concern; In vivo DILI [2, 3]: -VE
2 | Cl[C@H]1[C@H](Cl)[C@@H](Cl)[C@@H](Cl)[C@H](Cl)[C@H]1Cl [1,2,3,4,5,6-hexachlorocyclohexane] | – | – | – | In vivo DILI ([2]; in vivo): +VE; Structural based (HCI) (human hepatocytes): -VE
3 | CC(=O)c1ccc(S(=O)(=O)NC(=O)NC2CCCCC2)cc1 [acetohexamide] | – | +VE | +VE | –
4 | CC(=O)OCC[N+](C)(C)C [acetylcholine chloride] | – | -VE | -VE | DILI +VE (5-8), DILI -VE (-4) ([1]; ref Chen 2016): -VE; DILI severity category ([1]; ref Chen 2016): vNo-DILI-Concern
5 | N[C@H](C(=O)O)[C@@H]1CC(Cl)=NO1 [acivicin] | – | -VE | -VE | –
6 | O.O=C1NC(=O)C(=O)C(=O)N1 [alloxan hydrate] | – | -VE | -VE | In vivo DILI ([2]; ref O'Brien 2006): +VE
7 | C=C1[C@@H]2CC[C@H]3[C@]4(C)C[C@H](O[C@@H]5O[C@H](CO)[C@@H](OS(=O)(=O)O)[C@H](OS(=O)(=O)O)[C@H]5OC(=O)CC(C)C)C[C@@H](C(=O)O)[C@H]4CC[C@]3(C2)[C@H]1O [atractyloside] | – | +VE | +VE | –
8 | C[C@H]1C[C@H]2[C@@H]3CCC4=CC(=O)C=C[C@]4(C)[C@@]3(Cl)[C@@H](O)C[C@]2(C)[C@@]1(O)C(=O)CO [beclomethasone] | – | – | – | In vivo DILI ([2]; in vivo): -VE; Structural based (HCI) (human hepatocytes): -VE
9 | C[C@H]1C[C@H]2[C@@H]3CCC4=CC(=O)C=C[C@]4(C)[C@@]3(F)[C@@H](O)C[C@]2(C)[C@@]1(O)C(=O)CO [betamethasone] | – | -VE | -VE | –
10 | CS(=O)(=O)OCCCCOS(C)(=O)=O [busulphan] | – | +VE | +VE | –
11 | [Cl][Cd][Cl] [cadmium chloride] | – | +VE | +VE | –
12 | COC(=O)Nc1nc2ccccc2[nH]1 [carbendazim] | – | – | – | In vivo DILI ([2]; in vivo): +VE; Structural based (HCI) (human hepatocytes): -VE
13 | CC1(C)[C@@H](OC(=O)CCC(=O)[O-])CC[C@]2(C)[C@H]3C(=O)C=C4[C@@H]5C[C@@](C)(C(=O)[O-])CC[C@]5(C)CC[C@@]4(C)[C@]3(C)CC[C@@H]12.[Na+].[Na+] [carbenoxolone disodium] | – | – | – | In vivo DILI ([2]; in vivo): -VE; Structural based (HCI) (human hepatocytes): -VE
14 | CN/C(=N/CCSCc1nc[nH]c1C)NC#N [cimetidine] | – | -VE | -VE | DILI +VE (5-8), DILI -VE (-4) ([1]; ref Chen 2016): +VE; DILI severity category ([1]; ref Chen 2016): vLess-DILI-Concern; In vivo DILI ([2]; […]): +VE
15 | OCCN1CCN(CC/C=C2/c3ccccc3Sc3ccc(C(F)(F)F)cc32)CC1 [cis(z)-flupentixol] | – | – | – | In vivo DILI ([2]; in vivo): -VE; Structural based (HCI) (human hepatocytes): -VE
16 | CN(C)CCCC1(c2ccc(F)cc2)OCc2cc(C#N)ccc21 (centres unmarked) [citalopram] | – | – | – | DILI +VE (5-8), DILI -VE (-4) ([1]; in vivo): +VE; DILI severity category ([1]; in vivo): vLess-DILI-Concern; In vivo DILI ([2]; in vivo): -VE; Structural based (HCI) (human hepatocytes): -VE
17 | Nc1nc(Cl)nc2c1ncn2[C@H]1C[C@H](O)[C@@H](CO)O1 [cladribine] | – | -VE | -VE | DILI +VE (5-8), DILI -VE (-4) ([1]; ref Chen 2016): -VE; DILI severity category ([1]; ref Chen 2016): Ambiguous DILI-concern
18 | NC1CCN(c2c(F)cc3c(=O)c(C(=O)O)cn(C4CC4)c3c2Cl)C1 (centres unmarked) [clinafloxacin] | – | -VE | -VE | –
19 | CN1CCC(=C2c3ccccc3C=Cc3ccccc32)CC1 [cyproheptadine] | – | +VE | +VE | DILI +VE (5-8), DILI -VE (-4) ([1]; ref Chen 2016): +VE; DILI severity category ([1]; ref Chen 2016): vLess-DILI-Concern
20 | N[C@H]1C(O)O[C@H](CO)[C@H](O)[C@@H]1O (stereo partly drawn) [d-galactosamine] | – | – | – | In vivo DILI ([2]; in vivo): +VE; Structural based (HCI) (human hepatocytes): -VE
21 | CN(C)[C@@H]1C(O)=C(C(N)=O)C(=O)[C@@]2(O)C(O)=C3C(=O)c4c(O)ccc(Cl)c4[C@@H](O)[C@H]3C[C@@H]12 [demeclocycline] | – | +VE | -VE | DILI +VE (5-8), DILI -VE (-4) ([1]; binary in vivo human DILI call, ref Chen 2016): -VE; DILI severity category ([1]; human DILI, LTKB DILIrank category, ref Chen 2016): Ambiguous DILI-concern
22 | CC(C)N(CCC(C(N)=O)(c1ccccc1)c1ccccn1)C(C)C (centres unmarked) [disopyramide phosphate] | – | +VE | -VE | –
23 | CCO.C[C@H]1c2cccc(O)c2C(O)=C2C(=O)[C@]3(O)C(O)=C(C(N)=O)C(=O)[C@@H](N(C)C)[C@@H]3[C@@H](O)[C@@H]21.C[C@H]1c2cccc(O)c2C(O)=C2C(=O)[C@]3(O)C(O)=C(C(N)=O)C(=O)[C@@H](N(C)C)[C@@H]3[C@@H](O)[C@@H]21.Cl.Cl.O [doxycycline hyclate] | – | – | – | In vivo DILI ([2]; in vivo): +VE; Structural based (HCI) (human hepatocytes): +VE
24 | C[C@@H](CO)NC(=O)[C@@H]1C=C2c3cccc4[nH]cc(c34)C[C@H]2N(C)C1 [ergonovine maleate] | – | -VE | -VE | –
25 | C[C@]12CC[C@@H]3c4ccc(O)cc4CC[C@H]3[C@@H]1CC[C@@H]2O[C@@H]1O[C@H](C(=O)O)[C@@H](O)[C@H](O)[C@H]1O [estradiol 17b glucuronide] | – | – | – | In vivo DILI ([2]; in vivo): +VE; Structural based (HCI) (human hepatocytes): -VE

Row | SMILES | Structural based (HCI), In vitro Assay (human hepatocytes; [4]) | In vivo DILI ([2]; ref Xu 2008) | Structural based (HCI) (human hepatocytes; In vitro Assay, ref Xu 2008) | other results
26 | N#CC(C#N)=NNc1ccc(OC(F)(F)F)cc1 [fccp] | – | +VE | +VE | In vivo DILI ([2]; ref O'Brien 2006): +VE
27 | CC(C(=O)O)c1cccc(Oc2ccccc2)c1 (centres unmarked) [fenoprofen sodium] | – | +VE | +VE | –
28 | CC(Cc1ccc(O)cc1)NCC(O)c1cc(O)cc(O)c1 (centres unmarked) [fenoterol hbr] | – | – | – | In vivo DILI ([2]; in vivo): +VE; Structural based (HCI) (human hepatocytes): -VE
29 | O=c1[nH]c(=O)n([C@H]2C[C@H](O)[C@@H](CO)O2)cc1F [floxuridine] | – | +VE | -VE | In vivo DILI ([2]; […]): +VE
30 | O.O=[N+]([O-])[O][Ga]([O][N+](=O)[O-])[O][N+](=O)[O-] [gallium nitrate hydrate] | -VE | – | – | In vivo DILI [2, 3]: -VE
31 | COc1c(N2CCNC(C)C2)c(F)cc2c(=O)c(C(=O)O)cn(C3CC3)c12 (centres unmarked) [gatifloxacin] | -VE | – | – | In vivo DILI [2, 3]: -VE
32 | O=c1[nH]c(=O)n([C@H]2C[C@H](O)[C@@H](CO)O2)cc1I [idoxuridine] | -VE | – | – | In vivo DILI [2, 3]: +VE
33 | CCSCC[C@H](N)C(=O)O [l-ethionine] | -VE | – | – | In vivo DILI [2, 3]: +VE
34 | CC(=O)O[C@]1(C(C)=O)CC[C@H]2[C@@H]3C[C@H](C)C4=CC(=O)CC[C@]4(C)[C@H]3CC[C@@]21C [medroxyprogesterone acetate] | -VE | – | – | In vivo DILI [2, 3]: -VE
35 | CN1CCCCC1CCN1c2ccccc2Sc2ccc([S+](C)[O-])cc21 (centres unmarked) [mesoridazine besylate] | -VE | – | – | In vivo DILI [2, 3]: +VE
36 | COc1ccc(OC)c(C(O)C(C)N)c1 (centres unmarked) [methoxamine] | -VE | – | – | In vivo DILI [2, 3]: -VE
37 | C[C@H]1C(=O)O[C@@H]2CCN3CC=C(COC(=O)[C@](C)(O)[C@]1(C)O)[C@H]23 [monocrotaline] | – | – | – | In vivo DILI ([2]; in vivo): +VE; Structural based (HCI), In vitro Assay (human hepatocytes): -VE
38 | C=C1CC[C@@]2(O)[C@H]3Cc4ccc(O)c5c4[C@@]2(CCN3CC2CC2)[C@H]1O5 [nalmefene] | -VE | – | – | In vivo DILI [2, 3]: -VE
39 | CCCOc1ccc2[nH]c(NC(=O)OC)nc2c1 [oxybendazole] | -VE | – | – | In vivo DILI [2, 3]: +VE
40 | NC[C@@H]1O[C@H](O[C@H]2[C@@H](O)[C@H](O[C@@H]3[C@@H](O)[C@H](N)C[C@H](N)[C@H]3O[C@H]3O[C@H](CO)[C@@H](O)[C@H](O)[C@H]3N)O[C@@H]2CO)[C@H](N)[C@@H](O)[C@@H]1O [paromomycin] | -VE | – | – | –
41 | CC1(C)S[C@@H]2[C@H](NC(=O)Cc3ccccc3)C(=O)N2[C@H]1C(=O)O [penicillin g] | – | – | -VE | –
42 | CCOc1ccc(NC(C)=O)cc1 [phenacetin] | – | – | +VE | –
43 | C[C@]12C=CC(=O)C=C1CC[C@@H]1[C@@H]2C(=O)C[C@@]2(C)[C@H]1CC[C@]2(O)C(=O)CO [prednisone] | – | – | -VE | –
44 | CN(C)CCCN1c2ccccc2Sc2ccccc21 [promazine] | -VE | – | – | In vivo DILI [2, 3]: -VE
45 | COc1ccc(C[C@H](N)C(=O)N[C@H]2[C@@H](O)[C@H](n3cnc4c(N(C)C)ncnc43)O[C@@H]2CO)cc1 [puromycin] | +VE | – | – | In vivo DILI [2, 3]: +VE
46 | CC1=C(/C=C/C(C)=C/C=C/C(C)=C/C(=O)O)C(C)(C)CCC1 [retinoic acid] | – | +VE | +VE | In vivo DILI ([2]; […]): +VE
47 | CCCCNc1ccc(C(=O)OCCN(C)C)cc1 [tetracaine] | -VE | – | – | In vivo DILI [2, 3]: -VE
48 | CN1CCN(CC/C=C2/c3ccccc3Sc3ccc(S(=O)(=O)N(C)C)cc32)CC1 [thiothixene] | – | – | -VE | –
49 | CC(C)(C)NC[C@H](O)COc1nsnc1N1CCOCC1 [timolol maleate] | -VE | – | – | In vivo DILI [2, 3]: +VE
50 | Nc1ncnc2c1ncn2[C@@H]1O[C@H](CO)[C@@H](O)[C@@H]1O [vidarabine] | – | – | -VE | –
